#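 Assay format: 96-well plates, 48-hour exposure. TGI: concentration producing complete growth inhibition.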
# How the values were obtained:
# Experiment in all cases: NCI tumour cell line growth inhibition, 48 h
# UACC-62 melanoma = test system: UACC-62 melanoma
# SK-OV-3 ovarian = test system: SK-OV-3 ovarian
# 786-0 renal = test system: 786-0 renal
# OVCAR-3 ovarian = test system: OVCAR-3 ovarian
# SR leukemia = test system: SR leukemia
# HCC-2998 colon = test system: HCC-2998 colon
# XF 498 CNS = test system: XF 498 CNS
# NCI-H460 lung = test system: NCI-H460 lung
# OVCAR-5 ovarian = test system: OVCAR-5 ovarian
# RXF-631 renal = test system: RXF-631 renal
# KM20L2 colon = test system: KM20L2 colon
# SF-539 CNS = test system: SF-539 CNS
# SN12C renal = test system: SN12C renal
# NCI-H522 lung = test system: NCI-H522 lung
# SF-268 CNS = test system: SF-268 CNS
# HL-60(TB) leukemia = test system: HL-60(TB) leukemia
# OVCAR-8 ovarian = test system: OVCAR-8 ovarian
# M14 melanoma = test system: M14 melanoma
# OVCAR-4 ovarian = test system: OVCAR-4 ovarian
# SK-MEL-2 melanoma = test system: SK-MEL-2 melanoma
# DMS 273 small cell lung = test system: DMS 273 small cell lung
# KM12 colon = test system: KM12 colon
# M19-MEL melanoma = test system: M19-MEL melanoma
# UO-31 renal = test system: UO-31 renal
# HT29 colon = test system: HT29 colon
# LXFL 529 NSCLC = test system: LXFL 529 NSCLC
# MALME-3M melanoma = test system: MALME-3M melanoma
# NCI-H23 lung = test system: NCI-H23 lung
# ACHN renal = test system: ACHN renal
# RPMI-8226 leukemia = test system: RPMI-8226 leukemia
# UACC-257 melanoma = test system: UACC-257 melanoma
# SK-MEL-28 melanoma = test system: SK-MEL-28 melanoma
# DLD-1 colon = test system: DLD-1 colon
# SF-295 CNS = test system: SF-295 CNS
# SNB-75 CNS = test system: SNB-75 CNS
# MOLT-4 leukemia = test system: MOLT-4 leukemia
# K-562 leukemia = test system: K-562 leukemia
# COLO 205 colon = test system: COLO 205 colon
# HOP-92 NSCLC = test system: HOP-92 NSCLC
# CAKI-1 renal = test system: CAKI-1 renal
# SW-620 colon = test system: SW-620 colon
# HCT-15 colon = test system: HCT-15 colon
# SNB-78 CNS = test system: SNB-78 CNS
# IGROV1 ovarian = test system: IGROV1 ovarian
# LOX IMVI melanoma = test system: LOX IMVI melanoma
# NCI-H226 lung = test system: NCI-H226 lung
# SNB-19 CNS = test system: SNB-19 CNS
# HOP-62 NSCLC = test system: HOP-62 NSCLC
# TK-10 renal = test system: TK-10 renal
# A549 NSCLC = test system: A549 NSCLC
# U251 CNS = test system: U251 CNS
# HOP-18 NSCLC = test system: HOP-18 NSCLC
# HCT-116 colon = test system: HCT-116 colon
# DMS 114 small cell lung = test system: DMS 114 small cell lung
# CCRF-CEM leukemia = test system: CCRF-CEM leukemia
# SK-MEL-5 melanoma = test system: SK-MEL-5 melanoma
# A498 renal = test system: A498 renal
# EKVX NSCLC = test system: EKVX NSCLC
# MCF7 breast = test system: MCF7 breast
# SN12K1 renal = test system: SN12K1 renal
# RXF 393 renal = test system: RXF 393 renal
# P388 leukemia = test system: P388 leukemia
# P388/ADR leukemia = test system: P388/ADR leukemia
smiles,measurement,setting,value
CC(C)COC(=O)c1ccc(N=Cc2ccc(C=Nc3ccc(C(=O)OCC(C)C)cc3)cc2)cc1,TGI,UACC-62 melanoma,> 100 µM
same,TGI,SK-OV-3 ovarian,> 100 µM
same,TGI,786-0 renal,> 100 µM
same,TGI,OVCAR-3 ovarian,> 100 µM
same,TGI,SR leukemia,> 100 µM
same,TGI,HCC-2998 colon,> 100 µM
same,TGI,XF 498 CNS,> 100 µM
same,TGI,NCI-H460 lung,> 100 µM
same,TGI,OVCAR-5 ovarian,> 100 µM
same,TGI,RXF-631 renal,> 100 µM
same,TGI,KM20L2 colon,> 100 µM
same,TGI,SF-539 CNS,> 100 µM
same,TGI,SN12C renal,> 100 µM
same,TGI,NCI-H522 lung,> 100 µM
same,TGI,SF-268 CNS,> 100 µM
same,TGI,HL-60(TB) leukemia,> 100 µM
same,TGI,OVCAR-8 ovarian,> 100 µM
same,TGI,M14 melanoma,> 100 µM
same,TGI,OVCAR-4 ovarian,> 100 µM
same,TGI,SK-MEL-2 melanoma,> 100 µM
same,TGI,DMS 273 small cell lung,> 100 µM
same,TGI,KM12 colon,> 100 µM
same,TGI,M19-MEL melanoma,> 100 µM
same,TGI,UO-31 renal,> 100 µM
same,TGI,HT29 colon,> 100 µM
same,TGI,LXFL 529 NSCLC,> 100 µM
same,TGI,MALME-3M melanoma,> 100 µM
same,TGI,NCI-H23 lung,> 100 µM
same,TGI,ACHN renal,> 100 µM
same,TGI,RPMI-8226 leukemia,> 100 µM
same,TGI,UACC-257 melanoma,> 100 µM
same,TGI,SK-MEL-28 melanoma,> 100 µM
same,TGI,DLD-1 colon,> 100 µM
same,TGI,SF-295 CNS,> 100 µM
same,TGI,SNB-75 CNS,> 100 µM
same,TGI,MOLT-4 leukemia,> 100 µM
same,TGI,K-562 leukemia,> 100 µM
same,TGI,COLO 205 colon,> 100 µM
same,TGI,HOP-92 NSCLC,> 100 µM
same,TGI,CAKI-1 renal,> 100 µM
same,TGI,SW-620 colon,> 100 µM
same,TGI,HCT-15 colon,> 100 µM
same,TGI,SNB-78 CNS,> 100 µM
same,TGI,IGROV1 ovarian,> 100 µM
same,TGI,LOX IMVI melanoma,> 100 µM
same,TGI,NCI-H226 lung,> 100 µM
same,TGI,SNB-19 CNS,> 100 µM
same,TGI,HOP-62 NSCLC,> 100 µM
same,TGI,TK-10 renal,> 100 µM
same,TGI,A549 NSCLC,> 100 µM
same,TGI,U251 CNS,> 100 µM
Cc1cc2nc3c(=O)[nH]c(=O)nc-3n(CC(O)C(O)C(O)CO)c2cc1N (stereo not drawn),TGI,UACC-62 melanoma,> 100 µM
same,TGI,SK-OV-3 ovarian,> 100 µM
same,TGI,786-0 renal,> 100 µM
same,TGI,OVCAR-3 ovarian,> 100 µM
same,TGI,HCC-2998 colon,> 100 µM
same,TGI,HOP-18 NSCLC,> 100 µM
same,TGI,NCI-H460 lung,> 100 µM
same,TGI,RXF-631 renal,> 100 µM
same,TGI,SF-539 CNS,> 100 µM
same,TGI,SN12C renal,> 100 µM
same,TGI,HL-60(TB) leukemia,> 100 µM
same,TGI,OVCAR-8 ovarian,> 100 µM
same,TGI,M14 melanoma,> 100 µM
same,TGI,OVCAR-4 ovarian,> 100 µM
same,TGI,SK-MEL-2 melanoma,> 100 µM
same,TGI,HCT-116 colon,> 100 µM
same,TGI,DMS 273 small cell lung,> 100 µM
same,TGI,KM12 colon,> 100 µM
same,TGI,M19-MEL melanoma,> 100 µM
same,TGI,UO-31 renal,> 100 µM
same,TGI,DMS 114 small cell lung,> 100 µM
same,TGI,HT29 colon,> 100 µM
same,TGI,LXFL 529 NSCLC,> 100 µM
same,TGI,CCRF-CEM leukemia,> 100 µM
same,TGI,NCI-H23 lung,> 100 µM
same,TGI,ACHN renal,> 100 µM
same,TGI,RPMI-8226 leukemia,> 100 µM
same,TGI,SK-MEL-28 melanoma,> 100 µM
same,TGI,SF-295 CNS,> 100 µM
same,TGI,SNB-75 CNS,> 100 µM
same,TGI,MOLT-4 leukemia,> 100 µM
same,TGI,K-562 leukemia,> 100 µM
same,TGI,COLO 205 colon,> 100 µM
same,TGI,HOP-92 NSCLC,> 100 µM
same,TGI,SW-620 colon,> 100 µM
same,TGI,HCT-15 colon,> 100 µM
same,TGI,SNB-78 CNS,> 100 µM
same,TGI,IGROV1 ovarian,> 100 µM
same,TGI,LOX IMVI melanoma,> 100 µM
same,TGI,NCI-H226 lung,> 100 µM
same,TGI,SK-MEL-5 melanoma,> 100 µM
same,TGI,SNB-19 CNS,> 100 µM
same,TGI,A498 renal,> 100 µM
same,TGI,EKVX NSCLC,> 100 µM
same,TGI,TK-10 renal,> 100 µM
same,TGI,A549 NSCLC,> 100 µM
CCN(CC)CCCC(C)Nc1c2ccc(Cl)cc2nc2cc(Cl)ccc12 (stereo not drawn),TGI,MCF7 breast,9.49 µM
same,TGI,UACC-62 melanoma,16.1 µM
same,TGI,SK-OV-3 ovarian,21.9 µM
same,TGI,OVCAR-3 ovarian,13.4 µM
same,TGI,HCC-2998 colon,5.49 µM
same,TGI,XF 498 CNS,9.64 µM
same,TGI,SN12K1 renal,8.47 µM
same,TGI,HOP-18 NSCLC,18.1 µM
same,TGI,NCI-H460 lung,12 µM
same,TGI,OVCAR-5 ovarian,21.2 µM
same,TGI,RXF 393 renal,13.2 µM
same,TGI,KM20L2 colon,11.6 µM
same,TGI,SF-539 CNS,15.6 µM
same,TGI,SN12C renal,17.3 µM
same,TGI,NCI-H522 lung,17.5 µM
same,TGI,P388 leukemia,3.58 µM
same,TGI,SF-268 CNS,16.3 µM
same,TGI,HL-60(TB) leukemia,4.6 µM
same,TGI,OVCAR-8 ovarian,19.3 µM
same,TGI,OVCAR-4 ovarian,9.68 µM
same,TGI,SK-MEL-2 melanoma,29.2 µM
same,TGI,HCT-116 colon,7.56 µM
same,TGI,DMS 273 small cell lung,10.3 µM
same,TGI,KM12 colon,9.29 µM
same,TGI,M19-MEL melanoma,9.97 µM
same,TGI,UO-31 renal,11.5 µM
same,TGI,DMS 114 small cell lung,16.6 µM
same,TGI,HT29 colon,8.28 µM
same,TGI,CCRF-CEM leukemia,7.47 µM
same,TGI,MALME-3M melanoma,25.5 µM
same,TGI,NCI-H23 lung,20.8 µM
same,TGI,RPMI-8226 leukemia,5.11 µM
same,TGI,UACC-257 melanoma,8.87 µM
same,TGI,SK-MEL-28 melanoma,15.8 µM
same,TGI,DLD-1 colon,9.38 µM
same,TGI,SF-295 CNS,8.49 µM
same,TGI,SNB-75 CNS,22.7 µM
same,TGI,MOLT-4 leukemia,5.31 µM
same,TGI,K-562 leukemia,5.05 µM
same,TGI,COLO 205 colon,5.01 µM
same,TGI,HOP-92 NSCLC,9.64 µM
same,TGI,CAKI-1 renal,10.7 µM
same,TGI,SW-620 colon,12.5 µM
same,TGI,HCT-15 colon,9.85 µM
same,TGI,SNB-78 CNS,26.6 µM
same,TGI,IGROV1 ovarian,19.5 µM
same,TGI,LOX IMVI melanoma,6.94 µM
same,TGI,NCI-H226 lung,9.76 µM
same,TGI,SK-MEL-5 melanoma,10 µM
same,TGI,SNB-19 CNS,40.8 µM
same,TGI,HOP-62 NSCLC,22.1 µM
same,TGI,A498 renal,21.9 µM
same,TGI,EKVX NSCLC,29.8 µM
same,TGI,A549 NSCLC,18.1 µM
same,TGI,U251 CNS,14.3 µM
same,TGI,P388/ADR leukemia,3.48 µM

# Reference: PubChem BioAssay (NCI)
